Test results reported in article PMC9482650, “Quantitative fragmentomics allow affinity mapping of interactomes” (Nature Communications, 2022).
Ends that are not written are not given here.

Columns and labels:
Assay in all cases: Holdup assay
Assay type in all cases: binding
[1] = biological target: LIMK2 PDZ (Homo sapiens, UniProt P53671); settings: composite holdup affinity; 0.00=below quantification threshold; read-out: COMP pKd (converted)
[2] = biological target: PDZRN4_2 PDZ (Homo sapiens, UniProt Q6ZMN7); settings: sheet PPI_convert; read-out: affinity to PDZ PDZRN4_2 (converted)
[3] = biological target: MAGI1_6 PDZ (Homo sapiens, UniProt Q96QZ7); settings: sheet PPI_convert; read-out: affinity to PDZ MAGI1_6 (converted)
[4] = biological target: MAGIX PDZ (Homo sapiens, UniProt Q9H6Y5); settings: sheet PPI_convert; read-out: affinity to PDZ MAGIX (converted)
Excerpt: Supplement 41467_2022_33018_MOESM4_ESM.xlsx, sheet "PPI_convert" | column: MAGIX

[5] = biological target: GRIP2_5 PDZ (Homo sapiens, UniProt Q9C0E4); settings: composite holdup affinity; 0.00=below quantification threshold; read-out: COMP pKd (converted)
[6] = biological target: LIN7B PDZ (Homo sapiens, UniProt Q9HAP6); settings: composite holdup affinity; 0.00=below quantification threshold; read-out: COMP pKd (converted)
[7] = biological target: SHANK1 PDZ (Homo sapiens, UniProt Q9Y566); settings: composite holdup affinity; 0.00=below quantification threshold; read-out: COMP pKd (converted)
[8] = biological target: GRIP2_3 PDZ (Homo sapiens, UniProt Q9C0E4); settings: composite holdup affinity; 0.00=below quantification threshold; read-out: COMP pKd (converted)
[9] = biological target: MAGI2_6 PDZ (Homo sapiens, UniProt Q86UL8); settings: composite holdup affinity; 0.00=below quantification threshold; read-out: COMP pKd (converted)
[10] = biological target: AHNAK1 PDZ (Homo sapiens, UniProt Q09666); settings: composite holdup affinity; 0.00=below quantification threshold; read-out: COMP pKd (converted)
[11] = biological target: IL16_1 PDZ (Homo sapiens, UniProt Q14005); settings: composite holdup affinity; 0.00=below quantification threshold; read-out: COMP pKd (converted)
[12] = biological target: GRIP2_6 PDZ (Homo sapiens, UniProt Q9C0E4); settings: composite holdup affinity; 0.00=below quantification threshold; read-out: COMP pKd (converted)
[13] = biological target: DVL1 PDZ (Homo sapiens, UniProt O14640); settings: sheet PPI_convert; read-out: affinity to PDZ DVL1 (converted)
[14] = biological target: PDZD2_3 PDZ (Homo sapiens, UniProt O15018); settings: sheet PPI_convert; read-out: affinity to PDZ PDZD2_3 (converted)
[15] = biological target: PARD3B_2 PDZ (Homo sapiens, UniProt Q8TEW8); settings: sheet PPI_convert; read-out: affinity to PDZ PARD3B_2 (converted)
[16] = biological target: Inadl_5 PDZ (Homo sapiens, UniProt Q8NI35); settings: composite holdup affinity; 0.00=below quantification threshold; read-out: COMP pKd (converted)
[17] = biological target: DVL2 PDZ (Homo sapiens, UniProt O14641); settings: sheet PPI_convert; read-out: affinity to PDZ DVL2 (converted)
Chain of DVL2 PDZ (O14641 267-339 limits assumed): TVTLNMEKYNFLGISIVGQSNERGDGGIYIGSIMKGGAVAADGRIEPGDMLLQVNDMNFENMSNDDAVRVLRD

Chain of SHANK1 PDZ (Q9Y566 663-757 limits assumed): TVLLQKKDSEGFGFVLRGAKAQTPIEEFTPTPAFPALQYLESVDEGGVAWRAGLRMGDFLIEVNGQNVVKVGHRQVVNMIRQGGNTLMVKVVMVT
Chain of GRIP2_6 PDZ (Q9C0E4 656-738 limits assumed): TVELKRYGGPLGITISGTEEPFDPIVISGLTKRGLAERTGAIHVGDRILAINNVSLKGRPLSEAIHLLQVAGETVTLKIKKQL
Chain of IL16_1 PDZ (Q14005 216-302 limits assumed): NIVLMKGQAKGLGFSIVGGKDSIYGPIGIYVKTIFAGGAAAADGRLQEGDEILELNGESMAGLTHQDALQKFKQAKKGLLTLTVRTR
Chain of MAGI2_6 PDZ (Q86UL8 1147-1229 limits assumed): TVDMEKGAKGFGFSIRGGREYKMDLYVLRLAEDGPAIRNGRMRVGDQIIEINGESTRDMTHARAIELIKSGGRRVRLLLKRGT
Chain of PARD3B_2 PDZ (Q8TEW8 383-468 limits assumed): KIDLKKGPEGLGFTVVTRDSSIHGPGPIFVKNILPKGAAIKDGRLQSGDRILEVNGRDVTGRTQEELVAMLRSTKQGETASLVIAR
Chain of Inadl_5 PDZ (Q8NI35 686-772 limits assumed): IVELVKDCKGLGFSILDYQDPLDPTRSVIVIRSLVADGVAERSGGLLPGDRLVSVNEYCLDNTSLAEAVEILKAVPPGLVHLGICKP
Chain of PDZD2_3 PDZ (O15018 586-672 limits assumed): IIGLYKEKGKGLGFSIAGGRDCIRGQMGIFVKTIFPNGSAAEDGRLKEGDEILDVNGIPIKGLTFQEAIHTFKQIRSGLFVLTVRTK
Chain of GRIP2_3 PDZ (Q9C0E4 248-332 limits assumed): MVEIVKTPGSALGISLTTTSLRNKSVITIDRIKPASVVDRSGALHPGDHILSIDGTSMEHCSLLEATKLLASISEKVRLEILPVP
Chain of LIMK2 PDZ (P53671 152-239 limits assumed): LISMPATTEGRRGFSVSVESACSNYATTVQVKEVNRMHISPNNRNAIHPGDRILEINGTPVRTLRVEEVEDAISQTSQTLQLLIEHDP
Chain of LIN7B PDZ (Q9HAP6 93-175 limits assumed): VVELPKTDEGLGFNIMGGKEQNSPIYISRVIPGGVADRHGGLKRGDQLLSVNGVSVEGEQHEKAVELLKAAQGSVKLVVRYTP
Chain of MAGIX PDZ (Q9H6Y5 125-209): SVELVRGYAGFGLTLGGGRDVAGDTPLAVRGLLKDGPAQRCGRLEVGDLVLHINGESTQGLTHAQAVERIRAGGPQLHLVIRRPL
Chain of MAGI1_6 PDZ (Q96QZ7 1124-1206 limits assumed): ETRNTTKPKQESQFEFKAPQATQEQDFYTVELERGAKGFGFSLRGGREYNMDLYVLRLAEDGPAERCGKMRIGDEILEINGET
Chain of GRIP2_5 PDZ (Q9C0E4 557-641 limits assumed): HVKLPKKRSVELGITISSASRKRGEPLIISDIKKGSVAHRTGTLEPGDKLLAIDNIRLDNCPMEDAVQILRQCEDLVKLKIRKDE
Chain of DVL1 PDZ (O14640 251-323 limits assumed): as the sequence (O14641 267-339 limits assumed) above, with K8R, Y9H, N10H, E22D, M57V, D73E counted along it
Chain of AHNAK1 PDZ (Q09666 9-90 limits assumed): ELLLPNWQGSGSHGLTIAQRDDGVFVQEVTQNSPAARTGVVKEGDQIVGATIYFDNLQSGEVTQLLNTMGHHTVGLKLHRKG
Chain of PDZRN4_2 PDZ (Q6ZMN7 402-486 limits assumed): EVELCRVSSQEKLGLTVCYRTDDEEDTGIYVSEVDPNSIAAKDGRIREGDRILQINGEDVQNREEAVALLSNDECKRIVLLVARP

Sequence	Kd [1] [µM]	Kd [2] [µM]	Kd [3] [µM]	Kd [4] [µM]	Kd [5] [µM]	Kd [6] [µM]	Kd [7] [µM]	Kd [8] [µM]	Kd [9] [µM]	Kd [10] [µM]	Kd [11] [µM]	Kd [12] [µM]	Kd [13] [µM]	Kd [14] [µM]	Kd [15] [µM]	Kd [16] [µM]	Kd [17] [µM]
RHTTSTETAV [HPV30-E6]	141	33.1	18.6	4.47	178	195	186	245	64.6	191	83.2	170	–	–	–	–	–
RTRQRNETQV [HPV51-E6]	–	–	–	–	–	–	–	–	–	–	–	–	13.8	60.3	40.7	398	25.7
